Like-named read-outs stand apart in the source and are kept apart here.
What was measured:
SF3b complexes = target: T1, SF3b complexes (Homo sapiens, UniProt O75533+Q7RTV0); experiment: Scintillation proximity assay (SPA) with [3H]-labelled pladienolide probe; assay type: binding; conditions: SF3B1 (WT); geometric mean; read-out: SPA-ATS GMean IC50 (nM) SF3B1 (WT)
T1 construct: endogenous in cells; host or cells: Nuclear extracts; A HeLa S3 extract preparation is described for the in vitro splicing assay
Method in brief: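 SF3b complexes captured from nuclear extracts on anti-SF3B1 antibody SPA beads; test compounds pre-incubated 30 min before 2.5 nM [3H]-pladienolide probe added, then 30 min incubation. Bound probe read by scintillation; values from non-linear regression of concentration–response curves.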

[1] = tested on: Ad2 variant pre-mRNAs spliced in HeLa S3 nuclear extracts; experiment: In vitro splicing assay (IVS), RT-qPCR of spliced product; assay type: biochemical; conditions: for IC50: geometric mean; for Ratio Ad2.1/2.2: ratio of IVS IC50 Ad2.1 to Ad2.2
Method in brief: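 Read-out is one-step TaqMan RT-qPCR of spliced Ad2 mRNA with Ftz as reference, normalized to DMSO and fit by non-linear regression. Reactions held HeLa S3 nuclear extract, 2 ng Ad2-derived pre-mRNA and test compound, with 15 min preincubation. Splicing was started with ATP-containing activation buffer and run 90 min at 30 °C.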

[2] = tested on: NCI-H1568 cells (high MCL1); experiment: Cell proliferation and viability, CellTiter-Glo, 72 hours; assay type: cell-based; conditions: for GI50: geometric mean
Method in brief: (§1)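 ATP luminescence (CellTiter-Glo) was measured 72 h after treatment with compound at 10 μM–100 pM (11 points, half-log) in 0.1% DMSO. The Panc line was grown in RPMI-1640 plus insulin and 15% FBS, the other in 10% FBS. Data were normalised to time zero and vehicle controls, where −100% is cidal and 0% static.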

[3] = tested on: Panc 05.04 cells (SF3b K700E mutant); experiment: as above; assay type: cell-based; conditions: for GI50: geometric mean
Method in brief: as §1

[4] = Ad2.1 pre-mRNA substrate, read-out: qPCR-IVS-ATS GMean IC50 (nM) Ad2.1
[5] = Ad2.2 pre-mRNA substrate, read-out: qPCR-IVS-ATS GMean IC50 (nM) Ad2.2
[6] = NCI-H1568, 72 h, read-out: CTGlo-ATS GMean GI50 (nM) 72 h NCIH1568.1, NCIH1568.1 cells, 72 h
[7] = NCIH1568.1 cells, 72 h, −100% cidal, 0% static, 100% maximal growth
[8] = PANC0504.1 cells, 72 h, −100% cidal, 0% static, 100% maximal growth
[9] = Panc 05.04, 72 h, read-out: CTGlo-ATS GMean GI50 (nM) 72 h PANC0504.1, PANC0504.1 cells, 72 h
[10] = NCI-H1568, read-out: CTGlo-ATS GMean GI50 (nM) 72 h NCIH1568.1, NCIH1568.1 cells, 72 h
[11] = Panc 05.04, read-out: CTGlo-ATS GMean GI50 (nM) 72 h PANC0504.1, PANC0504.1 cells, 72 h
[12] = 72 h, NCIH1568.1, -100% = cidal, 0% = static, 100% = uninhibited growth
[13] = NCI-H1568, read-out: CTGlo-ATS GMean GI50 (nM) 72 h NCIH1568.1, 72 h, NCIH1568.1
[14] = 72 h, PANC0504.1, -100% = cidal, 0% = static, 100% = uninhibited growth
[15] = Panc 05.04, read-out: CTGlo-ATS GMean GI50 (nM) 72 h PANC0504.1, 72 h, PANC0504.1

Row | SMILES | IC50 (SF3b complexes) [nM] | IC50 [1, 4] [nM] | IC50 [1, 5] [nM] | GI50 [2, 6] [nM] | CTGlo-ATS Mean MinResponse % 72 h NCIH1568.1 [2, 7] [%] | CTGlo-ATS Mean MinResponse % 72 h PANC0504.1 [3, 8] [%] | GI50 [3, 9] [nM] | GI50 [2, 10] [nM] | GI50 [3, 11] [nM] | Ratio Ad2.1/2.2 [1] | CTGlo-ATS Mean MinResponse % 72 h NCIH1568.1 [2, 12] [%] | GI50 [2, 13] [nM] | CTGlo-ATS Mean MinResponse % 72 h PANC0504.1 [3, 14] [%] | GI50 [3, 15] [nM] | GI50 ([2]; NCI-H1568, 72 h, read-out: CTGlo-ATS GMean GI50 (nM) 72 h NCIH1568.1, 72 h, NCIH1568.1) [nM] | GI50 ([3]; Panc 05.04, 72 h, read-out: CTGlo-ATS GMean GI50 (nM) 72 h PANC0504.1, 72 h, PANC0504.1) [nM]
1 | C/C(=C\c1ccc2nccn2c1)[C@H]1OC(=O)C[C@H](O)CC[C@H](C)[C@@H](OC(=O)N2CCN(C)CC2)/C=C/[C@@H]1C [Compound 88, [(2S,3S,4E,6R,7S,10R)-10-hydroxy-2-[(E)-1-imidazo[1,2-a]pyridin-6-ylprop-1-en-2-yl]-3,7-dimethyl-12-oxo-l-oxacyclododec-4-en-6-yl] 4-methylpiperazine-1-carboxylate] | 1.02 | > 25000 | 154 | 157 | −20.194 | −5.029 | 86.3 |  |  |  |  |  |  |  |  | 
2 | C/C(=C\c1cc(F)cc(N2CCOCC2=O)c1)[C@H]1OC(=O)C[C@H](O)CC[C@H](C)[C@@H](OC(=O)N2CCN(C)CC2)/C=C/[C@@H]1C [Compound 56] | 1.94 | 16.1 | 15.3 |  | −67.625 | −90.320 |  | 4.42 | 1.85 |  |  |  |  |  |  | 
3 | C/C(=C\c1cccc(N(C)C2COC2)c1)[C@H]1OC(=O)C[C@H](O)CC[C@H](C)[C@@H](OC(=O)N2CCN(C)CC2)/C=C/[C@@H]1C [Compound 171] | 1.51 | 18800 | 42.6 | 19.6 | −50.083 | −92.998 | 23.6 |  |  |  |  |  |  |  |  | 
4 | C/C(=C\c1cc(F)cc(F)c1)[C@H]1OC(=O)C[C@H](O)CC[C@H](C)[C@@H](OC(=O)N2CCN(C)CC2)/C=C/[C@@H]1C [Compound 28] | 10.1 | 8.55 | 61.5 | 89.6 | −39.539 | −41.132 | 42.9 |  |  |  |  |  |  |  |  | 
5 | C=CS(=O)(=O)N1CCN(c2cc(F)cc(/C=C(\C)[C@H]3OC(=O)C[C@H](O)CC[C@H](C)[C@@H](OC(=O)N4CCN(C)CC4)/C=C/[C@@H]3C)c2)CC1 [Compound 74] | 4.88 | 34.5 | 20.8 |  | −99.528 | −64.747 |  | 4.69 | 13.1 |  |  |  |  |  |  | 
6 | C/C(=C\c1cc(F)cc(N2CCC[C@@H]2C)c1)[C@H]1OC(=O)C[C@H](O)CC[C@H](C)[C@@H](OC(=O)N2CCN(C)CC2)/C=C/[C@@H]1C [Compound 43] | 12 | > 25000 | 139 | 89.1 | −36.254 | −88.777 | 57.5 |  |  |  |  |  |  |  |  | 
7 | C/C(=C\c1ccc(C)c(N2CCCC2=O)c1)[C@H]1OC(=O)C[C@H](O)CC[C@H](C)[C@@H](OC(=O)N2CCN(C)CC2)/C=C/[C@@H]1C [Compound 207, [(2S,3S,4E,6R,7S,10R)-10-hydroxy-3,7-dimethyl-2-[(E)-1-[4-methyl-3-(2-oxopyrrolidin-1-yl)phenyl]prop-1-en-2-yl]-12-oxo-1-oxacyclododec-4-en-6-yl] 4-methylpiperazine-1-carboxylate] | 3.46 | 22.5 | 15.5 |  |  |  |  |  |  | 1.451 | −63.380 | 16.9 | −92.266 | 15.1 |  | 
8 | C/C(=C\c1cccc(N2CCN(CCO)CC2)c1)[C@H]1OC(=O)C[C@H](O)CC[C@H](C)[C@@H](OC(=O)N2CCC(N3CCCCC3)CC2)/C=C/[C@@H]1C [Compound 263, [(2S,3S,4E,6R,7S,10R)-10-hydroxy-2-[(E)-1-[3-[4-(2-hydroxyethyl)piperazin-1-yl]phenyl]prop-1-en-2-yl]-3,7-dimethyl-12-oxo-1-oxacyclododec-4-en-6-yl] 4-piperidin-1-ylpiperidine-1-carboxylate] | 37.7 | 93.6 | 25.5 |  |  |  |  |  |  | 3.677 | −67.601 | 102 | −88.783 | 64.5 |  | 
9 | C/C(=C\c1cc(F)cc(N2CCOCC2)c1)[C@H]1OC(=O)C[C@H](O)CC[C@H](C)[C@@H](OC(=O)N2CCN3CCCC3C2)/C=C/[C@@H]1C (some centres unmarked) [Compound 82] | 3.79 | 68.6 | 28.2 |  | −60.656 | −88.044 |  | 12.2 | 8.74 |  |  |  |  |  |  | 
10 | C/C(=C\c1cc(F)cc(N2CCN(CCO)C2=O)c1)[C@H]1OC(=O)C[C@H](O)CC[C@H](C)[C@@H](OC(=O)N2CCN(C)CC2)/C=C/[C@@H]1C [Compound 65] | 2.83 | 26.2 | 17.3 | 5.88 | −68.297 | −88.951 | 5.74 |  |  |  |  |  |  |  |  | 
11 | C/C(=C\c1cccc(S(=O)(=O)N2CCN(C=O)CC2)c1)[C@H]1OC(=O)C[C@H](O)CC[C@H](C)[C@@H](OC(=O)N2CCN(C)CC2)/C=C/[C@@H]1C [Compound 94] | 7.48 | 5570 | 37.5 |  | −40.948 | −94.671 |  | 35.5 | 30.4 |  |  |  |  |  |  | 
12 | C/C(=C\c1cc(F)cc(N2C[C@@H](C)O[C@@H](C)C2)c1)[C@H]1OC(=O)C[C@H](O)CC[C@H](C)[C@@H](OC(=O)N2CCC(N3CCCCC3)CC2)/C=C/[C@@H]1C [Compound 16] | 57 | 100 | 39.2 |  | −88.977 | −85.810 |  | 59.1 | 41.5 |  |  |  |  |  |  | 
13 | C/C(=C\c1cc(F)cc(N2CCN(S(=O)(=O)c3ccc4ccn(C)c4c3)CC2)c1)[C@H]1OC(=O)C[C@H](O)CC[C@H](C)[C@@H](OC(=O)N2CCN(C)CC2)/C=C/[C@@H]1C [Compound 115] | 144 | 335 | 233 |  | −93.625 | −97.417 |  | 88.9 | 85.2 |  |  |  |  |  |  | 
14 | C/C(=C\c1cc(F)cc(N2CCOCC2)c1)[C@H]1OC(=O)C[C@H](O)CC[C@H](C)[C@@H](OC(=O)N2CCN(C3CCC3)CC2)/C=C/[C@@H]1C [Compound 26] | 11.4 | 107 | 43.5 | 26.5 | −68.566 | −88.278 | 19 |  |  |  |  |  |  |  |  | 
15 | C/C(=C\c1cc(F)cc(N2CCN(CCO)CC2)c1)[C@H]1OC(=O)C[C@H](O)CC[C@H](C)[C@@H](OC(=O)N2CCOCC2)/C=C/[C@@H]1C [Compound 53] | 14.1 | 1910 | 30.5 |  | −59.250 | −92.947 |  | 81.8 | 81.1 |  |  |  |  |  |  | 
16 | C/C(=C\c1cccc(N(C)C)c1)[C@H]1OC(=O)C[C@H](O)CC[C@H](C)[C@@H](OC(=O)N2CCN(C)CC2)/C=C/[C@@H]1C [Compound 265] | 5.3 | > 25000 | 71.6 |  |  |  |  |  |  | 349.0 | −9.0 |  | 25.1 |  | 47.5 | 36.7
17 | C/C(=C\c1cccc(N2CCN(C)CC2)c1)[C@H]1OC(=O)C[C@H](O)CC[C@H](C)[C@@H](OC(=O)N2CCN(C)CC2)/C=C/[C@@H]1C [Compound 2] | 14.7 | 29.3 | 24.8 |  | −70.665 | −76.626 |  | 40.6 | 30.3 |  |  |  |  |  |  | 

From patent US11679107B2 (Eisai R&D Management Co., Ltd., priority 2018, dated 2023)
